One assay has as its target BaF3(T315I) (Homo sapiens, UniProt P00519, T315I, cells depend on it). Kind of assay: WST (CCK-8) anti-proliferation assay, BaF3 T315I cells. The note with it: read-out: BaF3(T315I); anti-proliferative IC50, 72 h treatment, CCK-8, BaF3 T315I.
In a further assay the target is BaF3(WT) (Homo sapiens, UniProt P00519). Kind of assay: WST (CCK-8) anti-proliferation assay, BaF3 WT cells. The following applies: read-out: BaF3(WT); anti-proliferative IC50, 72 h treatment, CCK-8, BaF3 WT.

Procedure for BaF3(WT): The anti-proliferative effect of representative Compounds of the Disclosure was determined by a water-soluble tetrazolium (WST)-based assay using Cell Counting Kit-8 (CCK-8). Cells were seeded in 96-well plates and treated with different concentrations of test articles for 72 h. Each treatment was tested in triplicates. Briefly, a series of 9 concentrations were chosen for each test article and added at 100 μl/well into a 96-well plate. Each concentration was tested in triplicates. 100 μl of diluent was added into 3-6 wells in the same plate for cell control group, and another set of 3-6 wells was used as a blank control.
In each well, 100 μl of cell suspension (containing optimal cell numbers, which creates approximately 100% confluence of cells in control wells based on by the absorbance (OD) value) was dispensed into the same 96-well plate except for the blank well. The plate was then cultured at 37° C. in an incubator in an atmosphere with 5% CO2 for 72 h. At the end of treatments, 20 μl/well of CCK-8 reagent was directly added to each wells. The plate was then incubated at 37° C. in an incubator in an atmosphere with 5% CO2 for 2-4 hour.
The cells viability was calculated using the mean OD value of triplicated wells following the equation below: (OD sample−OD blank)/(OD cell control−OD blank)×100 IC50 values were calculated with Graphpad Prism 6.0 software using nonlinear regression (curve fitting) type data analysis.

`CC(C)n1cc(CO)c2cc(C(=O)Nc3ccc(OC(F)(F)Cl)cc3)cc(-c3cncnc3)c21` [XII-7, N-(4-(chlorodifluoromethoxy)phenyl)-3-(hydroxymethyl)-1-isopropyl-7-(pyrimidin-5-yl)-1H-indole-5-carboxamide]: the GI50 at BaF3(T315I) is 552 nM; at BaF3(WT), 82 nM.

With `CC1(C)c2c(cc(C(=O)Nc3ccc(OC(F)(F)Cl)cc3)cc2-c2ccn[nH]2)C(=O)N1CCN1CC[C@@H](O)C1` [IV-8, (R)—N-(4-(chlorodifluoromethoxy)phenyl)-2-(2-(3-hydroxypyrrolidin-1-yl)ethyl)-1,1-dimethyl-3-oxo-7-(1H-pyrazol-5-yl)isoindoline-5-carboxamide], the GI50 at BaF3(T315I) stood at 6020 nM; at BaF3(WT), 100 nM. Take `CC(=O)N(C)CC1Cc2cc(C(=O)Nc3ccc(OC(F)(F)Cl)cc3)cc(-c3ccn[nH]3)c2N1C(C)C` (stereo not drawn) [VII-18, N-(4-(chlorodifluoromethoxy)phenyl)-1-isopropyl-2-((N-methylacetamido)methyl)-7-(1H-pyrazol-5-yl)indoline-5-carboxamide]: the GI50 at BaF3(T315I) was determined as 484 nM; on BaF3(WT), 124 nM. In the same order, the values of `CC(C)N1c2c(cc(C(=O)Nc3ccc(OC(F)(F)Cl)cc3)cc2-c2ccn[nH]2)CC1CO` (stereo not drawn) [VII-34, N-(4-(chlorodifluoromethoxy)phenyl)-2-(hydroxymethyl)-1-isopropyl-7-(1H-pyrazol-5-yl)indoline-5-carboxamide] are 648 nM and 45 nM. In the same order, the values of `CC(C)n1cc(CO)c2cc(C(=O)Nc3ccc(OC(F)(F)Cl)cc3)cc(-c3ccn[nH]3)c21` [XII-8, N-(4-(chlorodifluoromethoxy)phenyl)-3-(hydroxymethyl)-1-isopropyl-7-(1H-pyrazol-5-yl)-1H-indole-5-carboxamide] are 344 nM and 57 nM. Turning to `CC1c2cc(C(=O)Nc3ccc(OC(F)(F)Cl)cc3)cc(-c3ccn[nH]3)c2N(C(C)C)C1CO` (stereo not drawn) [VII-19, N-(4-(chlorodifluoromethoxy)phenyl)-2-(hydroxymethyl)-1-isopropyl-3-methyl-7-(1H-pyrazol-5-yl)indoline-5-carboxamide], the GI50 at BaF3(T315I) was determined as 1090 nM; on BaF3(WT) it was 133 nM. For the compound `CC(C)C(=O)N1CCc2cc(C(=O)Nc3ccc(OC(F)(F)Cl)cc3)cc(-c3ccn[nH]3)c21` [VII-10, N-(4-(chlorodifluoromethoxy)phenyl)-1-isobutyryl-7-(1H-pyrazol-5-yl) indoline-5-carboxamide], the GI50 at BaF3(T315I) is 3840 nM; at BaF3(WT) it was 1160 nM. On to `CC(C)N1c2c(cc(C(=O)Nc3ccc(OC(F)(F)Cl)cc3)cc2-c2ccn[nH]2)CC1C(=O)N1CCS(=O)(=O)CC1` (stereo not drawn) [VII-31, N-(4-(chlorodifluoromethoxy)phenyl)-2-(1,1-dioxidothiomorpholine-4-carbonyl)-1-isopropyl-7-(1H-pyrazol-5-yl)indoline-5-carboxamide], for which the GI50 at BaF3(T315I) came out at 423 nM; on BaF3(WT), 78 nM.

As to `CC1(C)C(=O)Nc2cc(C(=O)Nc3ccc(OC(F)(F)Cl)cc3)cc(-c3ccn[nH]3)c21` [V-1, N-(4-(chlorodifluoromethoxy)phenyl)-3,3-dimethyl-2-oxo-4-(1H-pyrazol-5-yl)indoline-6-carboxamide], the values for the GI50 at BaF3(T315I) and at BaF3(WT) were 71 nM and 45 nM, respectively. Take `CC(C)N1c2c(cc(C(=O)Nc3ccc(OC(F)(F)Cl)cc3)cc2-c2ccn[nH]2)CC1CN(C)C` (stereo not drawn) [VII-13, N-(4-(chlorodifluoromethoxy)phenyl)-2-((dimethylamino)methyl)-1-isopropyl-7-(1H-pyrazol-5-yl)indoline-5-carboxamide]: the GI50 on BaF3(T315I) stood at 1410 nM; on BaF3(WT) it was 266 nM. On to `CN1CCC2(C1)C(=O)Nc1cc(C(=O)Nc3ccc(OC(F)(F)Cl)cc3)cc(-c3cc[nH]n3)c12` (stereo not drawn) [V-8, N-(4-(chlorodifluoromethoxy)phenyl)-1′-methyl-2-oxo-4-(1H-pyrazol-3-yl)spiro[indoline-3,3′-pyrrolidine]-6-carboxamide], for which the GI50 on BaF3(WT) was found to be 1550 nM.

The record behind these values is patent publication US20220332701A1, “HETEROCYCLIC COMPOUNDS AS BCR-ABL INHIBITORS” (ASCENTAGE PHARMA (SUZHOU) CO., LTD., priority 2019, published 2022).
